The target of this experiment is T1, human URAT1 (Homo sapiens, UniProt Q96S37).
T1 construct: Human URAT1 full length cDNA was subcloned to expression vector pcDNA3.1; expressed in transfected cells; host or cells: HEK293 cells (pcDNA3.1, geneticin-selected)
T1 sequence (Q96S37 1-553): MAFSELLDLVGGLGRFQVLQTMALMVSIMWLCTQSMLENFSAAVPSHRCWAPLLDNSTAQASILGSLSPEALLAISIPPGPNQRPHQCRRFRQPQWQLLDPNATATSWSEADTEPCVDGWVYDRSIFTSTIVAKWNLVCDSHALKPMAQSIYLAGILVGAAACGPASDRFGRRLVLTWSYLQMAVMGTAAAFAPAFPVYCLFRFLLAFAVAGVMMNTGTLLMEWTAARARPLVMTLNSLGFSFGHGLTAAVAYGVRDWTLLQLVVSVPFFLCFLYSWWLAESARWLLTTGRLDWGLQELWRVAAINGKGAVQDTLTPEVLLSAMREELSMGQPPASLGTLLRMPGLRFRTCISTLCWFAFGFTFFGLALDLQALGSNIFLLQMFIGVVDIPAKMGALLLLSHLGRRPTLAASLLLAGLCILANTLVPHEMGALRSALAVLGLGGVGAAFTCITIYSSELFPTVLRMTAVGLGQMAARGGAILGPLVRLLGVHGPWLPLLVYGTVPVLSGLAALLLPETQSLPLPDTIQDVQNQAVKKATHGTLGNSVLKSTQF
The experiment is described as follows: Uric acid transport inhibitory test using human URAT1-expressing cells. The note with it: human URAT1 expressing HEK293 cells, uptake of 14C-labeled uric acid for 5 min, room temperature; read-out: hURAT1 (IC50, concentration necessary for inhibiting the uric acid transport rate by 50%). The class given is cell-based. An excerpt:
Reference Experimental Example 1 Uric Acid Transport Inhibitory Test Using Human Urat1-Expressing Cells
Human URAT1 full length cDNA was subcloned to expression vector pcDNA3.1 and human URAT1 gene was transfected into human embryonic kidney derived cell line (HEK293 cells) by liposome method using Lipofectamine2000. Simultaneously, HEK293 cells transfected with expression vector pcDNA3.1 alone (hereinafter mock cells) were also produced. HEK293 cells expressing human URAT1 gene or mock cells were selected with geneticin resistance as an index. The functional expression of human URAT1 gene was confirmed by a method similar to the following method, using transport of uric acid labeled with ^14C into the cells as an index.
Human URAT1 expressing HEK293 cells or mock cells were cultured in Dulbecco's modified Eagle's MEM medium (high glucose) containing 10% fetal bovine serum, 0.5 mg/mL geneticin sulfate, 100 units/mL penicillin and 100 μg/mL streptomycin under the conditions of 37° C. and 5% CO2 in an incubator. The cells were plated in a 96 well plate (poly-D-Lysine coated) at 1×10^5 cells/well and the following uric acid transport inhibitory test was performed 24 hr later. This test was performed at room temperature.
After the medium was removed by aspiration from each well, the cells were washed once with Hank's Balanced Salt Solution (HBSS) and preincubated with HBSS ([…]) for 5 min. HBSS was aspirated and an assay buffer (wherein NaCl in the above-mentioned HBSS had been substituted with Na-gluconate) containing various concentrations of the Example compound and a radioactive ligand (uric acid labeled with 14C; final concentration […]) was added to each well at […] and an uptake reaction was carried out for 5 min. After the reaction, the cells were washed twice with ice-cold HBSS ([…]), and Microscin ti TM 20 (PerkinElmer) was added at […]. The cells were lysed by stirring and the radioactivity of each well was measured in a liquid scintillation counter (TOP COUNT, Packard).
The uric acid transport rate (%) of the Example compound at each concentration was calculated relative to the radioactivity (difference in radioactivity between human URAT1 expressing HEK293 cells and mock cells without addition of Example compound (DMSO addition)) showing URAT1 specific uric acid transport as 100%, and the concentration (IC50) of the Example compound necessary for inhibiting the uric acid transport rate by 50% was determined. In Table-Table, “+++” means IC50 value of less than 100 nM, “++” means IC50 value of 100 nM to less than 1000 nM, and “+” means IC50 value of 1000 nM to less than 3000 nM.
Take `O=C(c1ccc(O)c(Cl)c1)N1CCOc2ccccc21` [Example 1, (3-chloro-4-hydroxyphenyl)-(2,3-dihydrobenzo[1,4]oxazin-4-yl)-methanone]: the IC50 is below 100 nM.
For the molecule `O=C(c1ccc(O)c(Br)c1)N1CCOc2ccccc21` [Example 2, (3-bromo-4-hydroxyphenyl)-(2,3-dihydrobenzo[1,4]oxazin-4-yl)-methanone], the IC50 is below 100 nM.
For `O=C(c1cc(Cl)c(O)c(Cl)c1)N1CCOc2ccccc21` [Example 3, (3,5-dichloro-4-hydroxyphenyl)-(2,3-dihydrobenzo[1,4]oxazin-4-yl)-methanone] the value was below 100 nM; for `O=C(c1cc(Br)c(O)c(Br)c1)N1CCOc2ccccc21` [Example 4, (3,5-dibromo-4-hydroxyphenyl)-(2,3-dihydrobenzo[1,4]oxazin-4-yl)-methanone], below 100 nM.
Consider `O=C(c1cc(I)c(O)c(I)c1)N1CCOc2ccccc21` [Example 5, (2,3-dihydrobenzo[1,4]oxazin-4-yl)-(4-hydroxy-3,5-diiodophenyl)-methanone], for which the IC50 is below 100 nM.
On to `O=C(c1cc(F)c(O)c(F)c1)N1CCOc2ccccc21` [Example 6, (3,5-difluoro-4-hydroxyphenyl)-(2,3-dihydrobenzo[1,4]oxazin-4-yl)-methanone], for which the IC50 is 100 to 1000 nM.
For `Cc1cc(C(=O)N2CCOc3ccccc32)cc(C)c1O` [Example 7, (2,3-dihydrobenzo[1,4]oxazin-4-yl)-(4-hydroxy-3,5-dimethylphenyl)-methanone] the value was 100 to 1000 nM.
Turning to `O=C(c1cc(Cl)c(O)c(Cl)c1)N1CCSc2ccccc21` [Example 8, (3,5-dichloro-4-hydroxyphenyl)-(2,3-dihydrobenzo[1,4]thiazin-4-yl)-methanone], the IC50 fell in the range of 100 to 1000 nM.
As for `O=C(c1cc(Cl)c(O)c(Cl)c1)N1CCS(=O)(=O)c2ccccc21` [Example 10, (3,5-dichloro-4-hydroxyphenyl)-(1,1-dioxo-2,3-dihydro-1H-1λ^6-benzo[1,4]thiazin-4-yl)-methanone], the IC50 lay in the range of 100 to 1000 nM.
On to `Oc1c(Cl)cc(C(=S)N2CCOc3ccccc32)cc1Cl` [Example 11, (3,5-dichloro-4-hydroxyphenyl)-(2,3-dihydrobenzo[1,4]oxazin-4-yl)-methanethione], for which the IC50 is below 100 nM.
`Cc1ccc2c(c1)N(C(=O)c1cc(Cl)c(O)c(Cl)c1)CCO2` [Example 12, (3,5-dichloro-4-hydroxyphenyl)-(6-methyl-2,3-dihydrobenzo[1,4]oxazin-4-yl)-methanone]: the IC50 was below 100 nM.
Under `Cc1ccc2c(c1)OCCN2C(=O)c1cc(Cl)c(O)c(Cl)c1` [Example 13, (3,5-dichloro-4-hydroxyphenyl)-(7-methyl-2,3-dihydrobenzo[1,4]oxazin-4-yl)-methanone] stands 100 to 1000 nM; under `Cc1cccc2c1N(C(=O)c1cc(Cl)c(O)c(Cl)c1)CCO2` [Example 14, (3,5-dichloro-4-hydroxyphenyl)-(5-methyl-2,3-dihydrobenzo[1,4]oxazin-4-yl)-methanone], below 100 nM; under `Cc1cccc2c1OCCN2C(=O)c1cc(Cl)c(O)c(Cl)c1` [Example 15, (3,5-dichloro-4-hydroxyphenyl)-(8-methyl-2,3-dihydrobenzo[1,4]oxazin-4-yl)-methanone], below 100 nM.
On to `O=C(c1cc(Cl)c(O)c(Cl)c1)N1CCOc2ccc3ccccc3c21` [Example 16, (3,5-dichloro-4-hydroxyphenyl)-(2,3-dihydronaphtho[2,1-b][1,4]oxazin-1-yl)-methanone], for which the IC50 was below 100 nM.
Under `COc1ccc2c(c1)N(C(=O)c1cc(Cl)c(O)c(Cl)c1)CCO2` [Example 17, (3,5-dichloro-4-hydroxyphenyl)-(6-methoxy-2,3-dihydrobenzo[1,4]oxazin-4-yl)-methanone] stands below 100 nM; under `COc1ccc2c(c1)OCCN2C(=O)c1cc(Cl)c(O)c(Cl)c1` [Example 18, (3,5-dichloro-4-hydroxyphenyl)-(7-methoxy-2,3-dihydrobenzo[1,4]oxazin-4-yl)-methanone], 100 to 1000 nM.
Under `O=C(c1cc(Cl)c(O)c(Cl)c1)N1CCOc2ccc(O)cc21` [Example 19, (3,5-dichloro-4-hydroxyphenyl)-(6-hydroxy-2,3-dihydrobenzo[1,4]oxazin-4-yl)-methanone] stands 100 to 1000 nM.
Under `O=C(c1cc(Cl)c(O)c(Cl)c1)N1CCOc2cc(O)ccc21` [Example 20, (3,5-dichloro-4-hydroxyphenyl)-(7-hydroxy-2,3-dihydrobenzo[1,4]oxazin-4-yl)-methanone] stands 100 to 1000 nM.
Turning to `CCN(CC)S(=O)(=O)c1ccc2c(c1)N(C(=O)c1cc(Cl)c(O)c(Cl)c1)CCO2` [Example 21, 4-(3,5-dichloro-4-hydroxybenzoyl)-3,4-dihydro-2H-benzo[1,4]oxazine-6-sulfonic acid diethylamide], the IC50 lay within 100 to 1000 nM.
As for `O=S(=O)(c1cc(Cl)c(O)c(Cl)c1)N1CCOc2ccccc21` [Example 22, 2,6-dichloro-4-(2,3-dihydrobenzo[1,4]oxazine-4-sulfonyl)phenol], the IC50 lay in the range of 1000 to 3000 nM.
Take `CC(C)(C)c1ccc2c(c1)N(C(=O)c1cc(Cl)c(O)c(Cl)c1)CCO2` [Example 23, (6-tert-butyl-2,3-dihydrobenzo[1,4]oxazin-4-yl)-(3,5-dichloro-4-hydroxyphenyl)-methanone]: the IC50 lay within 1000 to 3000 nM.
Consider `O=C1COc2ccccc2N1C(=O)c1cc(Cl)c(O)c(Cl)c1` [Example 24, 4-(3,5-dichloro-4-hydroxybenzoyl)-4H-benzo[1,4]oxazin-3-one], for which the IC50 was 1000 to 3000 nM.
Turning to `O=C(c1cc(Cl)c(O)c(Cl)c1)N1CCCc2ccccc21` [Example 26, (3,5-dichloro-4-hydroxyphenyl)-(3,4-dihydro-2H-quinolin-1-yl)-methanone], the IC50 fell in the range of 100 to 1000 nM.
Turning to `O=C(c1cc(Cl)c(O)c(Cl)c1)N1CCCCc2ccccc21` [Example 27, (3,5-dichloro-4-hydroxyphenyl)-(2,3,4,5-tetrahydrobenzo[b]azepin-1-yl)-methanone], the IC50 lay within 100 to 1000 nM.
For `O=C(c1cnc(O)c(Cl)c1)N1CCOc2ccccc21` [Example 29, (5-chloro-6-hydroxypyridin-3-yl)-(2,3-dihydrobenzo[1,4]oxazin-4-yl)-methanone] the value was 1000 to 3000 nM; for `O=C(c1cc([N+](=O)[O-])c(O)c([N+](=O)[O-])c1)N1CCOc2ccccc21` [Example 30, (2,3-dihydrobenzo[1,4]oxazin-4-yl)-(4-hydroxy-3,5-dinitrophenyl)-methanone], 100 to 1000 nM; for `O=C(c1cc(Cl)c(O)c([N+](=O)[O-])c1)N1CCOc2ccccc21` [Example 31, (3-chloro-4-hydroxy-5-nitrophenyl)-(2,3-dihydrobenzo[1,4]oxazin-4-yl)-methanone], below 100 nM.
Under `O=C(c1cc(Cl)c(O)c(Cl)c1)N1CCOc2ccc(S(=O)(=O)N3CCCC3)cc21` [Example 33, (3,5-dichloro-4-hydroxyphenyl)-[6-(pyrrolidine-1-sulfonyl)-2,3-dihydrobenzo[1,4]oxazin-4-yl]-methanone] stands 100 to 1000 nM; under `CN(C)S(=O)(=O)c1ccc2c(c1)N(C(=O)c1cc(Cl)c(O)c(Cl)c1)CCO2` [Example 35, 4-(3,5-dichloro-4-hydroxybenzoyl)-3,4-dihydro-2H-benzo[1,4]oxazine-6-sulfonic acid dimethylamide], 1000 to 3000 nM.

These data come from patent US20080064871A1, “Production Method of Nitrogen-Containing Fused Ring Compounds” (Japan Tobacco Inc., priority 2006, published 2008).
